{
  "source": "patent US20040141955A1",
  "about": "“Compositions related to a novel endophytic fungi and methods of use” (priority 2001, published 2004)",
  "key": {"[1]": {"system": "selected group of 7 test fungi", "experiment": "Artificial atmosphere test of esters and individual esters", "type": "cell-based", "method": "In another set of experiments, test solutions were prepared by placing the volatile organic compounds isolatable from Muscodor albus cultures grown on potato dextrose agar (PDA) in vials in the relative proportions that they occurred in the gas phase of such cultures. The test mixture was placed in a presterilized microcup (4×6 mm) located in the center of a Petri plate containing PDA. When not in use, the mixture was stored at 0° C. The test organisms, freshly growing and excised on 3 mm^3 agar blocks (at least 3 agar blocks per test fungus), were placed 2-3 cm from the microcup and the plate wrapped with two layers of parafilm and grown for 2 or more days at 23° C. Measurements were made on mycelial growth from the edge of the agar blocks. However, in the case of bacteria and Candida albicans they were streaked on the test side of the PDA plate and checked for new visible growth and viability by restreaking from the original area of the agar plate that had been inoculated. Appropriate controls were also set up in which no test solution was placed into the microcup. Tests on 3.2-90 μl of the artificial mixture per 50 CC of air space above the PDA plate were done on 3 replicates in order to obtain IC50 data for each test organism. Viability of the test microbes was made by aseptically removing the small agar block and placing it on a PDA plate and observing growth after 1-3 days.\nTo determine the relative biological activity of each class of compounds, individual classes were also tested in the relative amounts in which they occur at the optimum concentration of the entire mixture, which is 60 μl of test mixture per 50 CC of air space above the culture in a standard Petri plate. For instance, the esters represent 44% of the mixture of the identified volatiles and were tested at 26.4 μl/50 CC (0.53 μl/CC) air space and the same procedure was used for each of the other classes of compounds that were identified. This was done with a selected group of 7 test fungi.\nEach compound in the class of esters was individually evaluated. […]"}, "[2]": {"system": "R. solani", "type": "cell-based", "details": "for Percent Inibition of Colony growth at 3 days: 30 μl (0.92) of compound, or 30 μl each (0.92) in mixtures, per 65 mL head space; for Colony diameter at 3 days (mm) / Viability: single compound; for Colony diameter at 3 days (mm): untreated control 70-72 mm; for lethal effect on R. solani: similar to that observed when R. solani is exposed to M. albus", "protocol": "In one set of experiments, a Petri plate divided by plastic walls into 3 equal spaces was used for the assay. A plug of R. solani was placed in one section of the Petri plate containing PDA. On another section of the plate, a lx2 cm piece of sterile filter paper was loaded with the test compound(s). All plates were wrapped with two layers of saran film and incubated at room temperature. The head space in each plate was 65 ml. Removing the agar plug and placing it onto a fresh PDA Petri plate determined the viability of R. Solani exposed to each test compound. Control experiments were also conducted along side without test compound(s).\nThe diameter of R. solani colonies on untreated control plates was 70-72 mm. The (+) symbol in the viability column of each table above indicates continued viability of the organism after exposure to and removal from the given compound or mixture, while the (−) symbol indicates death of the organism. Multiple (+) and (−) symbols in the same column indicate the results of multiple trials.\nSynergism between the volatile organic components produced by M. albus was studied using the method of Limpel as described by Richer (Richer, D. L. 1987). The determination of synergy as described by Limpel can be represented by the following equation: […]\nWhere Ee is the expected additive effect of the two antifungal compounds, X is the observed percentage of inhibition of the test organism when antifungal agent A is applied alone at the rate used in the mixture, and Y is the observed percentage inhibition of the test organism when antifungal agent B is used alone at the rate used in the mixture.\nExperimental studies were set up to determine if synergy exists between the components produced by M. albus. The biological activity of individual volatile organic compounds and mixtures of volatile organic compounds was tested according to the method described in Example 10 above. The observed inhibitory effects of the volatile organic compounds were then compared to the expected additive effects as calculated from the equation above."}, "[3]": {"details": "amount 0.92 (60 μl/65 mL head space)"}},
  "note": "Read-outs that look alike come from different tables or passages of the source.",
  "data": [
    {"molecule": "CC(C)CCOC(=O)C(C)C", "note": "[propionic acid, 2-methyl, 3-methylbutyl ester]", "values": [
      {"measurement": "inhibitory bioactivity of the individual ester", "setting": "[1]; each ester individually evaluated, comparable test", "result": "minimal inhibitory bioactivity"}
    ]},
    {"molecule": "CCCC(=O)OCC", "note": "[Ethyl butyrate]", "values": [
      {"measurement": "Percent Inibition of Colony growth at 3 days", "setting": "[2]", "result": 86, "unit": "%"},
      {"measurement": "Colony diameter at 3 days (mm)", "setting": "[2]; [3]", "result": "no growth"}
    ]},
    {"molecule": "CCC(C)CO", "note": "(centres unmarked) [2-Methyl-1-butanol]", "values": [
      {"measurement": "Colony diameter at 3 days (mm)", "setting": "[2]; [3]", "result": "no growth"}
    ]},
    {"molecule": "CC(C)C(=O)O", "note": "[Isobutyric acid]", "values": [
      {"measurement": "lethal effect on R. solani", "setting": "[2]", "result": "lethal effect"},
      {"measurement": "Viability", "setting": "[2]; [3]", "result": "no"},
      {"measurement": "Colony diameter at 3 days (mm)", "setting": "[2]; [3]", "result": "no growth"}
    ]},
    {"molecule": "CC(C)CCO", "note": "[3-methyl-1-butanol]", "values": [
      {"measurement": "lethal effect on R. solani", "setting": "[2]", "result": "lethal effect"},
      {"measurement": "Colony diameter at 3 days (mm)", "setting": "[2]; amount 0.46 (30 μl/65 mL head space)", "result": "fuzz"},
      {"measurement": "Viability", "setting": "[2]; [3]", "result": "no"},
      {"measurement": "Colony diameter at 3 days (mm)", "setting": "[2]; [3]", "result": "no growth"}
    ]},
    {"molecule": "CC(=O)OCCC(C)C", "note": "[3-methylbutyl acetate, 1-butanol, 3-methyl, acetate]", "values": [
      {"measurement": "death of test fungus", "setting": "[1]; standard 3 day exposure period", "result": "under no conditions in any test, was death of any test fungus observed"},
      {"measurement": "inhibitory bioactivity of the individual ester", "setting": "[1]; tested at the level of 0.32 μl/CC (62% of all identified combined esters)", "result": "almost completely mimicked the results of all esters"}
    ]},
    {"molecule": "CCOC(=O)CC", "note": "[Ethyl propionate]", "values": [
      {"measurement": "Percent Inibition of Colony growth at 3 days", "setting": "[2]", "result": 76, "unit": "%"}
    ]}
  ]
}
